Experimental data published in patent US20230346889A9, “TREATMENT OF ACUTE HEART FAILURE” (AnaCardio R&D AB, priority 2019, published 2023).
Entries after “also recorded” stand apart in the source; their conditions may differ.

Test system: patients with advanced CHF and reduced EF
Test: Randomized double-blind placebo-controlled trial of intravenous acyl ghrelin: non-invasive hemodynamics (Innocor, Nexfin)
Assay type: in vivo
Description: Between 17 Feb. 2013 and 19 May 2015 we conducted a prospective double-blind, placebo-controlled, parallel-group, single centre randomized clinical trial with a one-time treatment of intravenous acyl ghrelin or placebo.
Patients were pre-screened in the Karolinska University Hospital heart failure clinic (FIG. 1) and had symptoms and signs of advanced CHF (New York Heart Association [NYHA] class III-IV) and an EF of ≤40%.
Ghrelin is a 28 amino acid peptide with a molecular weight of 3,371 g/mol. Half-time in plasma is 24-30 minutes. Concentrations in normal humans has variably been reported at 100-300 pmol/L (300-900 ng/L) for total ghrelin. There is limited data on acyl ghrelin but we recently measured acyl ghrelin in 41 healthy non-obese adults: fasting: mean±SD: 118±14 ng/L, 5-95th percentile 27-328 ng/L; trough 60 minutes post 260 kcal mixed meal: 80±12 ng/L, 5-95th percentile 21-293 ng/L. Synthetic acylated (active) human ghrelin (brand name Clinalfa Ghrelin (human) Acetate, product number 4071265; Bachem, Hauptstrasse 144, 4416 Bubendorf, Switzerland—hereafter referred to as ghrelin, was purchased from Bachem (Bubendorf, Switzerland) under license from Daiichi Sankyo (Tokyo, Japan). For each patient and treatment, a stock solution was prepared consisting of multiple vials of powder ghrelin (100 μg ghrelin/vial together with phosphate buffer), each vial dissolved in 1 mL sterile water for infusion (B. Braun, Germany) and visually inspected to be a clear and colorless solution, prior to adding 0.001 g (0.02 ml of 50 g/L stock) human albumin (for concentration 0.001 g/mL=0.1%) to each vial and further mixed with normal saline (NaCl 9 mg/ml, B. Braun, Germany). The proportion of stock solution and saline were according to patient weight (Table 2), resulting in a total volume of 100 mL (to ensure the same volume infusion for all patients). The final intravenous infusion rate was 0.50 mL/min volume (total volume 60 mL), equivalent to 0.1 μg (30 pmol)/kg/min (total amount 12.0 μg/kg) of acyl ghrelin administered to all patients randomized to ghrelin. The infusion was given for 120 minutes and continued until all measurements at 120 minutes had been completed (thus delivering some additional ghrelin). The median total infusion duration was 171 minutes. Measurements were repeated 30 minutes after stopping infusion.
Patients were randomized in parallel by block randomization in groups of 4 using paper envelopes to ghrelin or placebo and the infusion was given by antecubital vein over 120 minutes. A dedicated study nurse prepared ghrelin and placebo for infusion and patients and all other investigators were blinded. Immediately prior to, during, and after the 120 minute infusion and also 30 minutes after stopping the infusion, blood samples were drawn and symptoms, signs, echocardiography, ECG, and non-invasive hemodynamics were assessed (FIG. 2). Patients were discharged to home and returned 2-5 days later for repeat measurements. Patients were followed prospectively for morbidity and mortality outcomes.
Non-invasive resting CO in was assessed in duplicate at each measurement using the Innocor® device (Innovision, Odense, Denmark). The Innocor is a non-invasive device that measures pulmonary blood flow using an inert gas rebreathing technique, and measures VO2 directly. It has been validated for CO and VO2 at rest and exercise (Gabrielsen et al., 2002; Stahlberg et al., 2009).
The Innocor® directly measures pulmonary blood flow, VO2 and SpO2. From these variables, shunt fraction, cardiac output, SVO2 and A-V O2 difference was then calculated using standard formulas. Beat-by-beat ECG, blood pressure and the first derivative of the pressure signal (+dP/dt) were measured using a Nexfin® device (described below). Fifteen minutes of continuous beat-by-beat Nexfin data were averaged at the time of Innocor measurements. Estimated systemic vascular resistance (eSVR) was subsequently calculated as mean blood pressure/cardiac output×80. […]

## CCCCCCCC(=O)OC[C@H](NC(=O)[C@H](CO)NC(=O)CN)C(=O)N[C@@H](Cc1ccccc1)C(=O)N[C@@H](CC(C)C)C(=O)N[C@@H](CO)C(=O)N1CCC[C@H]1C(=O)N[C@@H](CCC(=O)O)C(=O)N[C@@H](Cc1cnc[nH]1)C(=O)N[C@@H](CCC(N)=O)C(=O)N[C@@H](CCCNC(=N)N)C(=O)N[C@H](C(=O)N[C@@H](CCC(N)=O)C(=O)N[C@@H](CCC(N)=O)C(=O)N[C@@H](CCCNC(=N)N)C(=O)N[C@@H](CCCCN)C(=O)N[C@@H](CCC(=O)O)C(=O)N[C@@H](CO)C(=O)N[C@@H](CCCCN)C(=O)N[C@@H](CCCCN)C(=O)N1CCC[C@H]1C(=O)N1CCC[C@H]1C(=O)N[C@@H](C)C(=O)N[C@@H](CCCCN)C(=O)N[C@@H](CC(C)C)C(=O)N[C@@H](CCC(N)=O)C(=O)N1CCC[C@H]1C(=O)N[C@@H](CCCNC(=N)N)C(=O)O)C(C)C [Ghrelin]
2-5 day follow-up visit
  A-V O2-diff: 27.4 ± 10.0 %
  CO: 4.21 ± 1.27 L/min
  HR: 71.6 ± 10.8 bpm
  PBF: 3.58 ± 0.74 L/min
  SV: 59.9 ± 18.5 mL
  Shunt: 15.7 ± 16.7%
  SpO2: 94.0 ± 3.9+ %
  SvO2: 66.4 ± 18.4 %
  VO2: 0.22 ± 0.06 L/min
2-5 days follow-up
  CO compared to placebo group: still a significant increase in CO
30 min after stop Infusion
  A-V O2 diff: 21.6 ± 12.1%
  CO: 4.94 ± 1.70 L/min
  PBF: 4.14 ± 0.97 L/min
  SV: 74.31 ± 26.09 mL
  Shunt: 12.6 ± 14.3%
  SpO2: 94.7 ± 3.9%
  SvO2: 73.3 ± 12.8%
  VO2: 0.19 ± 0.08 L/min
  dBP: 58.9 ± 7.5 mmHg
  dP/dt: 602 ± 252 mmHg/s
  mBP: 75.5 ± 12.0 mmHg
  sBP: 105.7 ± 20.5 mmHg
Baseline
  A-V O2 diff: 27.6 ± 14.3%
  CO: 4.08 ± 1.15 L/min
  PBF: 3.61 ± 0.70 L/min
  SV: 59.10 ± 17.82 mL
  Shunt: 9.9 ± 10.6%
  SpO2: 95.2 ± 3.4%
  SvO2: 67.9 ± 14.4%
  VO2: 0.20 ± 0.07 L/min
  dBP: 58.6 ± 8.4 mmHg
  dP/dt: 742 ± 267 mmHg/s
  mBP: 74.9 ± 11.3 mmHg
  sBP: 104.7 ± 18.4 mmHg
Baseline (Table 8)
  A-V O2-diff: 24.4 ± 7.6%
  CO: 4.08 ± 1.15 L/min
  HR: 69.6 ± 9.1 bpm
  PBF: 3.61 ± 0.70 L/min
  SV: 59.9 ± 19.0 mL
  Shunt: 9.9 ± 10.6%
  SpO2: 95.2 ± 3.4%
  SvO2: 67.7 ± 14.3%
  VO2: 0.2 ± 0.07 L/min
Infusion + 60 min
  A-V O2 diff: 23.6 ± 12.9 %
  CO: 4.64 ± 1.31 L/min
  PBF: 3.76 ± 0.76 L/min
  SV: 69.64 ± 22.75 mL
  Shunt: 16.8 ± 11.8 %
  SpO2: 93.5 ± 3.5 %
  SvO2: 70.0 ± 13.8%
  VO2: 0.19 ± 0.07 L/min
  dBP: 56.5 ± 8.7 mmHg
  dP/dt: 535 ± 213 mmHg/s
  mBP: 71.4 ± 10.2 mmHg
  sBP: 99.0 ± 17.6 mmHg
Infusion + 120 min
  A-V O2 diff: 20.9 ± 8.5 %
  CO: 5.23 ± 1.98 L/min
  PBF: 4.08 ± 0.90 L/min
  SV: 79.83 ± 30.30 mL
  Shunt: 18.0 ± 12.3 %
  SpO2: 93.4 ± 3.6 %
  SvO2: 71.7 ± 10.1%
  VO2: 0.19 ± 0.08 L/min
  dBP: 56.1 ± 10.3 mmHg
  dP/dt: 531 ± 191 mmHg/s
  mBP: 70.9 ± 13.1 mmHg
  sBP: 99.0 ± 21.1 mmHg
Between baseline and 120 minutes
  change in HR: fell slightly
During and after infusion
  change in calculated SV: increased with infusion and fell after stop of infusion
  change in systolic, diastolic and mean arterial blood pressure: no changes or differences in changes; also recorded: no changes in blood pressure; also recorded: no effect
During and after infusion, primary outcome
  change in CO: increased with infusion and fell after stop of infusion
In vivo
  change in oxygen consumption (VO2): no change
  change in pulmonary blood flow: increased
With infusion
  change in estimated SVR: fell and decrease
